Experiment [1] addresses TYK2 (Homo sapiens, UniProt P29597). In words: ADP-Glo Tyk2 kinase assay. In kind it is biochemical. To be noted: read-out: IC50, In vitro enzyme TYK2. On the procedure:
10 mM of Compound 1 was diluted in DMSO to prepare samples at five concentrations (5,000 nM, 500 nM, 50 nM, 5 nM, and 0.5 nM). 10 mM of ATP was diluted at 1/40 in 1× kinase buffer to make a preparation. 1 mg/mL of Poly (Glu4, Tyr1) peptide was used as a stock solution. 100 ng/μL of Tyk2 enzyme was diluted at ½ in 1× kinase buffer to make a preparation. 1 μL of ATP, 1 μL of Poly (Glu4, Tyr1) peptide, and 1 μL of Compound 1 prepared as above were mixed, after which 2 μL of Tyk2 enzyme was finally added and reacted at 30° C. for 40 minutes. At this time, a tube without […] enzyme was prepared for a blank and a tube without Compound 1 was prepared as a positive control group together (a final concentration of samples was 1,000 nM, 100 nM, 10 nM, 1 nM, and 0.1 nM).
Then, 5 μL of ADP-glo was added to each tube and reacted at 30° C. for 40 minutes, after which 10 μL of kinase detection reagent was added thereto and reacted at room temperature for 15 minutes. After 18 μL of the reactant was transferred to a 384 well plate, luminescence was measured using a plate reader.

In experiment [2] the test system is JAK1, 2. In words: In vitro cell assay, JAK1, 2 (STAT phosphorylation ELISA). As to conditions: read-out: IC50, Cell Biology JAK1, 2. The format is cell-based. On the procedure:
UT-7/EPO cell is an erythroleukemic cell line which expresses an EPO receptor, and is frequently used in many previous studies as a model to assess EPO-induced STAT5 phosphorylation mediated by JAK1 and JAK2 activity. Accordingly, in order to evaluate the activity of JAK1 and JAK2, UT-7/EPO cells were prepared.
The test material was dissolved in DMSO, prepared at 10 mM, divided by 20 μL each, and stored at −20° C.
• EPO: 2000 U/0.5 mL of stock was divided by 50 μL each and stored under refrigeration. • IL-2: 200 μg/ml of stock was prepared, divided by 5 μL each, and stored, and then treated at 2 ng/ml. (IL-2 1 μg/ml=13000 U/ml) • IFN-alphaB2: […] of stock was diluted and used, and then treated to reach 30000 U/ml.
• UT-7/EPO cell assay: MEM-alpha (Gibco, cat #12561-056) was prepared to contain 5% FBS and 1% P/S before use. • NK-92 cell assay: A preparation was made to contain HBSS, 1% FBS and 1% P/S before use. • U2OS cell assay: A preparation was made to contain HBSS, 1% FBS and 1% P/S before use.
The cultured cells were centrifuged (1,000 rpm, 5 minutes) and washed with PBS. The size of cell lines and appropriate reaction concentration thereof were set and the cell lines were seeded in a 96-well plate at 1×10^5 to 10^6 cells/well (50 μL/well). […]
Background: An ELISA detects its analyte on a solid surface through an enzyme-linked reagent.

Experiment [3] has as its system DNBS-induced animal model (IBD rat model). In words: DNBS-induced colitis model. The format is in vivo. To be noted: oral, once a day, four weeks, FIG. 26. On the procedure: Before induction of colitis with DNBS every week, experimental animals were fasted for 24 hours. Fasted animals were lightly anesthetized with isoflurane, catheter tubes with a length of 8 cm were inserted into the rat anus, and then colitis was induced by slowly injecting 250 μL of DNBS [15 mg (1st week), 30 mg (2nd week), 45 mg (3rd week) and 60 mg (4th week) in 250 μL of 50% ethanol] solution using a syringe pump at a rate of 100 μL/min. After the injection of the solution, a head-down posture was maintained for one minute so that the solution may spread evenly in the animal's intestines and may not leak out of the body. […]
The large intestine tissue extracted from the sacrificed experimental animals was photographed to measure the length of the large intestine. The length of the large intestine was measured from the taken picture using an image program (Leica Application Suite V4). […] The measured weight and length were used to convert the large intestine ratio (mg/cm) (=large intestine weight (mg)/large intestine length (cm)).
Calprotectin & c-reactive protein (CRP) and IFN-γ from serum collected at autopsy were analyzed by ELISA. […]

Chain of TYK2 (P29597 whole entry, species assumed): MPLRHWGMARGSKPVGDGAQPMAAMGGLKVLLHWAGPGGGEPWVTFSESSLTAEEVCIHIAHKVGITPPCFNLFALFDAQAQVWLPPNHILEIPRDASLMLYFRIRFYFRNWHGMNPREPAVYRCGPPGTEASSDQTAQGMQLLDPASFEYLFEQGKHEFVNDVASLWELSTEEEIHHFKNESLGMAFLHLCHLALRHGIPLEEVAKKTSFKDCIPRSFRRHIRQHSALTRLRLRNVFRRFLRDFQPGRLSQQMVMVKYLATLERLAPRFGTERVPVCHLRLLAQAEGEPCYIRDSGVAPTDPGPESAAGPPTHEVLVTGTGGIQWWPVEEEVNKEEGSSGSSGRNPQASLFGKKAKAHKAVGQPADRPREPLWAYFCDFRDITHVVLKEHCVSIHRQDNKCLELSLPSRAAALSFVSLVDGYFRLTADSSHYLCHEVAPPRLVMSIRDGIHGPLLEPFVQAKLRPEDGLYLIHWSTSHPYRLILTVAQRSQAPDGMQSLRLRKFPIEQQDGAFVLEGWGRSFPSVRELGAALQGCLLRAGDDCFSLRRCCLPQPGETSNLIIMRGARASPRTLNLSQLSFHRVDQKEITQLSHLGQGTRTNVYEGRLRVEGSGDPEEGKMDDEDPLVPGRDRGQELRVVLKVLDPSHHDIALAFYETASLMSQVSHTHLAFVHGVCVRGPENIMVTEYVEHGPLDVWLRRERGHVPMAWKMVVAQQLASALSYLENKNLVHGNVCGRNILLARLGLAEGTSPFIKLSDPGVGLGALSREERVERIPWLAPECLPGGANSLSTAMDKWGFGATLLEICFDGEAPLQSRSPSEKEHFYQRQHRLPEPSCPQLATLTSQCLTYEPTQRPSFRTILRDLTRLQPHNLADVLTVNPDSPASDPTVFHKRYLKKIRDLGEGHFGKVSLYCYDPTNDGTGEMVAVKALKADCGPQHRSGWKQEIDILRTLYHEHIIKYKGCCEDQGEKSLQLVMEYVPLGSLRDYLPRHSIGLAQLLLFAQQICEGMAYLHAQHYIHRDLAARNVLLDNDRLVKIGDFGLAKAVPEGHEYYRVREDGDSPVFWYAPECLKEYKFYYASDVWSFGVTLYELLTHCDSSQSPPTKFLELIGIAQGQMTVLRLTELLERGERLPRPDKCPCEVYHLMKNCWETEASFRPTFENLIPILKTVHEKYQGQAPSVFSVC

Usually IC50 stands for the concentration needed to halve the response being measured. `C[C@@H]1CN(C(=O)CC#N)CC=C1c1cc(NC(=O)C2CC2)nc2[nH]ccc12` [Compound 1, (S)—N-(4-(1-(2-cyanoacetyl)-3-methyl-1,2,3,6-tetrahydropyridin-4-yl)-1H-pyrrolo[2,3-b]pyridin-6-yl)cyclopropanecarboxamide]: in experiment [1], the half-inhibitory concentration (IC50) was found to be 22 nM. In addition, the 50% inhibitory concentration (IC50) in experiment [2] was determined as 18 nM. For the same compound, in experiment [3], the “Efficacy in IBD rat model” value is on record as “exhibits efficacy in an IBD rat model” and the “Level of proinflammatory cytokines compared to the control group (vehicle)” value is listed as “significantly lower level of proinflammatory cytokines”.

The values are drawn from US20240300943A1, “NOVEL SALTS OF HETEROCYCLIC COMPOUND AS PROTEIN KINASE INHIBITOR AND USES THEREOF” (HK INNO.N CORPORATION, priority 2021, published 2024).
